Reference: ChEMBL document CHEMBL3046817, “The synthesis and investigation of the antimicrobial activity of some new phenylselanyl-1-(toluene-4-sulfonyl)-1H-tetrazole derivatives” (2009)
Calls of active or inactive are those of the source. The rule behind the calls is not given here.

Key:
[1] = tested on: Staphylococcus aureus; assay: Antimicrobial activity against Staphylococcus aureus ATCC 25923 measured after overnight incubation by disk diffusion method; type: functional, organism-based
[2] = tested on: Salmonella enteritidis; assay: Antimicrobial activity against Salmonella enterica subsp. enterica serovar Enteritidis ATCC 13076 measured after overnight incubation by disk diffusion method; type: functional
[3] = tested on: Yersinia enterocolitica; assay: Antimicrobial activity against Yersinia enterocolitica ATCC 1501 measured after overnight incubation by disk diffusion method; type: functional
[4] = tested on: Listeria monocytogenes; assay: Antimicrobial activity against Listeria monocytogenes ATCC 7644 measured after overnight incubation by disk diffusion method; type: functional
[5] = tested on: Escherichia coli; details: ATCC 11230
Description: Antimicrobial activity against Escherichia coli ATCC 11230 measured after overnight incubation by disk diffusion method

[6] = tested on: Pseudomonas aeruginosa; assay: Antimicrobial activity against Pseudomonas aeruginosa ATCC 27853 measured after overnight incubation by disk diffusion method; type: functional
[7] = tested on: Bacillus cereus; assay: Antimicrobial activity against Bacillus cereus RSKK 863 measured after overnight incubation by disk diffusion method; type: functional, organism-based
[8] = tested on: Salmonella enteritidis; assay: Antimicrobial activity against Salmonella enterica subsp. enterica serovar Enteritidis ATCC 13076 at 25 ug/disk measured after overnight incubation by disk diffusion method; type: functional; details: read-out: IZ
[9] = tested on: Bacillus cereus; assay: Antimicrobial activity against Bacillus cereus RSKK 863 at 25 ug/disk measured after overnight incubation by disk diffusion method; type: functional; details: for zone of inhibition at 25 µg/disc: read-out: IZ
[10] = tested on: Pseudomonas aeruginosa; assay: Antimicrobial activity against Pseudomonas aeruginosa ATCC 27853 at 25 ug/disk measured after overnight incubation by disk diffusion method; type: functional
[11] = tested on: Listeria monocytogenes; assay: Antimicrobial activity against Listeria monocytogenes ATCC 7644 at 25 ug/disk measured after overnight incubation by disk diffusion method; type: functional
[12] = tested on: Escherichia coli; assay: Antimicrobial activity against Escherichia coli ATCC 11230 at 25 ug/disk measured after overnight incubation by disk diffusion method; type: functional; details: read-out: IZ
[13] = tested on: Staphylococcus aureus; assay: Antimicrobial activity against Staphylococcus aureus ATCC 25923 at 25 ug/disk measured after overnight incubation by disk diffusion method; type: functional; details: for zone of inhibition at 25 µg/disc: read-out: IZ
[14] = tested on: Yersinia enterocolitica; assay: Antimicrobial activity against Yersinia enterocolitica ATCC 1501 at 25 ug/disk measured after overnight incubation by disk diffusion method; type: functional; details: for zone of inhibition at 25 µg/disc: read-out: IZ

| SMILES | inhibition zone (IZ) [1] | inhibition zone (IZ) [2] [mm] | inhibition zone (IZ) [3] | inhibition zone (IZ) [4] [mm] | IZ [5] | inhibition zone (IZ) [6] [mm] | inhibition zone (IZ) [7] | zone of inhibition at 25 µg/disc [8] [mm] | inhibition zone (IZ) [9] | inhibition zone (IZ) [10] | inhibition zone (IZ) [11] | zone of inhibition at 25 µg/disc [12] [mm] | zone of inhibition at 25 µg/disc [13] [mm] | inhibition zone (IZ) [14] | zone of inhibition at 25 µg/disc [9] [mm] | zone of inhibition at 25 µg/disc ([11]; read-out: IZ) [mm] | inhibition zone (IZ) [13] | zone of inhibition at 25 µg/disc [14] [mm] | zone of inhibition at 25 µg/disc ([10]; read-out: IZ) [mm] |
| --- | --- | --- | --- | --- | --- | --- | --- | --- | --- | --- | --- | --- | --- | --- | --- | --- | --- | --- | --- |
| Cc1ccnc(NS(=O)(=O)c2ccc(N)cc2)n1 [SULFAMERAZINE] | inactive | 6.6 | 6.1 mm | 5.1 | inactive | 4.4 | inactive |  |  |  |  |  |  |  |  |  |  |  |  |
| Cc1ccc(S(=O)(=O)n2nnnc2[Se]c2ccc(I)cc2)cc1 |  |  |  |  |  |  |  | 5.8 | inactive | inactive | inactive | 3.2 | 8.2 | inactive |  |  |  |  |  |
| Cc1cc(NS(=O)(=O)c2ccc(N)cc2)no1 [SULFAMETHOXAZOLE] | inactive | 7.4 | inactive | 10.9 |  | 5.5 | inactive |  |  |  |  |  |  |  |  |  |  |  |  |
| Cc1ccc(S(=O)(=O)n2nnnc2[Se]c2ccccc2C)cc1 |  |  |  |  |  |  |  | 2.8 |  | inactive | inactive | 5.4 | 5.2 | inactive | 4.4 |  |  |  |  |
| Cc1ccc([Se]c2nnnn2S(=O)(=O)c2ccc(C)cc2)cc1 |  |  |  |  |  |  |  | 3.2 |  | inactive |  | 4.6 |  | inactive | 2.8 | 5 | inactive |  |  |
| Cc1ccc(S(=O)(=O)n2nnnc2[Se]c2ccc(Cl)cc2)cc1 |  |  |  |  |  |  |  | 7.8 | inactive | inactive | inactive | 3.2 | 4.8 |  |  |  |  | 3.4 |  |
| Cc1ccc(S(=O)(=O)n2nnnc2[Se]c2ccc(Br)cc2)cc1 |  |  |  |  |  |  |  | 8.2 | inactive | inactive | inactive | 5.4 | 6.2 | inactive |  |  |  |  |  |
| Cc1ccc(S(=O)(=O)n2nnnc2[Se]c2ccccc2Cl)cc1 |  |  |  |  |  |  |  | 7 |  |  | inactive | 7.4 | 4.2 |  | 3.2 |  |  | 5.6 | 4.4 |
